Test systems include NCI-H23 lung; SF-539 CNS; A498 renal; RPMI-8226 leukemia; NCI-H460 lung; SF-268 CNS; SF-295 CNS; CAKI-1 renal; 786-0 renal; HCT-116 colon.
Assay in all cases: growth of human tumour cells (NCI), 48 h

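A five-concentration, 48-hour dose response in 96-well plates underlies each endpoint, interpolated linearly between surrounding concentrations. The concentration for full growth arrest is given as TGI.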 Where only a bound is given, the exact number is not on record here.

In the case of `Oc1cc(Br)cc2cc(Br)cnc12`, the TGI was 46.1 µM with NCI-H23 lung; more than 100 µM in the assay on SF-539 CNS; 24.2 µM in the assay with A498 renal; 30.2 µM in the assay on RPMI-8226 leukemia; 22.1 µM in the assay on NCI-H460 lung; more than 100 µM in the assay on SF-268 CNS. Besides, the TGI is 28 µM in the assay with SF-295 CNS, 42.6 µM in the assay on CAKI-1 renal, 71.1 µM with 786-0 renal and more than 100 µM in the assay with HCT-116 colon.

Take `Cc1cccc(/C=N/NC(=S)NC(C)(C)C)n1`: the TGI with NCI-H23 lung, with SF-539 CNS, in the assay with A498 renal, in the assay with RPMI-8226 leukemia, in the assay with NCI-H460 lung and with SF-268 CNS was more than 100 µM each time. For the same compound, the TGI in the assay on SF-295 CNS, in the assay on CAKI-1 renal, with 786-0 renal and with HCT-116 colon was more than 100 µM each time.

Regarding `COc1ccc(C2=C(N)c3ccccc3C2=O)cc1`, the TGI in the assay on NCI-H23 lung, with SF-539 CNS, in the assay on A498 renal, with RPMI-8226 leukemia, in the assay on NCI-H460 lung and with SF-268 CNS was more than 100 µM each time. For the same compound, the TGI with SF-295 CNS, in the assay on CAKI-1 renal, in the assay with 786-0 renal and in the assay with HCT-116 colon was more than 100 µM each time.

In the case of `C=C(Cl)C(=C)CCC(Cl)C(C)(C)Cl` (stereo not given), the TGI in the assay with NCI-H23 lung, in the assay with SF-539 CNS, with A498 renal, with RPMI-8226 leukemia, in the assay with NCI-H460 lung and with SF-268 CNS was more than 100 µM in each case. Besides, the TGI in the assay with SF-295 CNS, in the assay with CAKI-1 renal, in the assay on 786-0 renal and in the assay with HCT-116 colon was more than 100 µM each time.

As to `Cn1c(=O)n2n(c1=O)C1C(=CC2)C2C=CC1n1c(=O)n(C)c(=O)n12` (stereo not given), the TGI with NCI-H23 lung, in the assay on SF-539 CNS, in the assay with A498 renal, in the assay on RPMI-8226 leukemia, with NCI-H460 lung and in the assay on SF-268 CNS was more than 100 µM each time. The TGI with SF-295 CNS, with CAKI-1 renal, in the assay on 786-0 renal and in the assay with HCT-116 colon was more than 100 µM each time.

Turning to `O=C(n1c(=O)n(-c2ccc([N+](=O)[O-])cc2)c(=O)n1C(=O)C(Cl)(Cl)Cl)C(Cl)(Cl)Cl`, the TGI in the assay with NCI-H23 lung, in the assay on SF-539 CNS, in the assay on A498 renal, in the assay with RPMI-8226 leukemia, in the assay on NCI-H460 lung and with SF-268 CNS was more than 100 µM in each case. For the same compound, the TGI in the assay on SF-295 CNS, with CAKI-1 renal, in the assay with 786-0 renal and in the assay with HCT-116 colon was more than 100 µM in each case.

On to `Cc1cc(C(C)(C)C)c(OCCCN2CCOCC2)c(C(C)(C)C)c1`, for which the TGI in the assay on NCI-H23 lung was 32 µM; with SF-539 CNS it was 33.7 µM; in the assay with A498 renal, 33.4 µM; in the assay with RPMI-8226 leukemia it was 34.8 µM; in the assay on NCI-H460 lung, more than 100 µM; in the assay on SF-268 CNS, 33.5 µM. Further, the TGI with SF-295 CNS is 33.1 µM; with CAKI-1 renal, 34.5 µM; with 786-0 renal it was 31.9 µM; in the assay with HCT-116 colon, 31.4 µM.

Consider `O=c1c2cc(Cl)ccc2n2nnc3ccc(NCCNCCO)c1c32`, for which the TGI with NCI-H23 lung was found to be 2.86 µM; with SF-539 CNS it was 3.32 µM; in the assay on A498 renal, 2.86 µM; in the assay with RPMI-8226 leukemia it was 10.2 µM; with NCI-H460 lung, 1.58 µM; in the assay on SF-268 CNS, 8.86 µM. The TGI stood at 1.38 µM in the assay with SF-295 CNS, 4.97 µM in the assay on CAKI-1 renal, 2.02 µM in the assay with 786-0 renal and 2.33 µM in the assay with HCT-116 colon.

Turning to `CCOC(=O)C1C2C1C1C(C(=O)OCC)C21` (stereo not given), the TGI in the assay with NCI-H23 lung, in the assay with SF-539 CNS, in the assay on A498 renal, with RPMI-8226 leukemia, with NCI-H460 lung and in the assay with SF-268 CNS was more than 100 µM throughout. Moreover, the TGI in the assay on SF-295 CNS, with CAKI-1 renal, in the assay with 786-0 renal and in the assay on HCT-116 colon was more than 100 µM throughout.

As to `O=[N+]([O-])c1ccc(-c2nc3ccccc3o2)cc1`, the TGI in the assay on NCI-H23 lung, in the assay on SF-539 CNS, in the assay with A498 renal, in the assay with RPMI-8226 leukemia, with NCI-H460 lung and in the assay on SF-268 CNS was more than 100 µM throughout. The TGI with SF-295 CNS, with CAKI-1 renal, with 786-0 renal and with HCT-116 colon was more than 100 µM throughout.

For the origin of these results see PubChem BioAssay (NCI).
